# How the values were obtained:
# [1] = system: L02; assay: Cytotoxicity against human HL7702 cells assessed as reduction in cell viability measured after 48 hrs by MTT assay; format: cell-based; conditions: L02, 48 h
# [2] = system: SK-OV-3; assay: Cytotoxicity against human SK-OV-3 cells assessed as reduction in cell viability measured after 48 hrs by MTT assay; format: functional, cell-based; conditions: SK-OV-3, 48 h
# [3] = system: WI-38; assay: Cytotoxicity against human WI-38 cells assessed as reduction in cell viability measured after 48 hrs by MTT assay; format: cell-based; conditions: WI-38, 48 h
# [4] = system: HepG2; assay: Cytotoxicity against human HepG2 cells assessed as reduction in cell viability measured after 48 hrs by MTT assay; format: functional, cell-based; conditions: HepG2, 48 h
# [5] = system: T-24; assay: Cytotoxicity against human T-24 cells assessed as reduction in cell viability measured after 48 hrs by MTT assay; format: functional, cell-based; conditions: T-24, 48 h
# [6] = system: MGC-803; assay: Cytotoxicity against human MGC-803 cells assessed as reduction in cell viability measured after 48 hrs by MTT assay; format: functional, cell-based; conditions: MGC-803, 48 h
structure (smiles),measurement,setting,value
Oc1cccc(/C=N/c2cc3ccccc3nc2-c2ccccc2F)c1O,IC50,[1],34 µM
same,IC50,[2],23.6 µM
same,IC50,[3],> 40 µM
same,IC50,[4],> 40 µM
same,IC50,[5],> 40 µM
same,IC50,[6],> 40 µM

# Source: ChEMBL document CHEMBL4840306, “Chemodynamic therapy agents Cu(II) complexes of quinoline derivatives induced ER stress and mitochondria-mediated apoptosis in SK-OV-3 cells” (Eur J Med Chem, 2021)
